Here are results for three substances from patent publication US4399124A, “Peptides having immunostimulating properties and pharmaceutical compositions containing them” (Institut Pasteur, priority 1979, dated 1983).

The subject of one assay is Listeria monocytogenes. Briefly: Multiplication of Listeria monocytogenes in the liver and the spleen of treated mice. In kind it is in vivo. As to conditions: 0.5 ml of 10^-4 M i.v. 12 h before i.v. 0.3×10^5 Listeria; NaCl control 7 × 10^7 ± 2.4. The procedure:
Mice in four batches of 4 animals were treated under the same conditions as previously. Twelve hours later, the mice were all inoculated, intravenously with 0.3×10^5 Listeria monocytogenes. The table below summarizes the results obtained. Again, the mice treated by the active principles show, in their spleen and especially in their liver, a number of Listeria up to 500 times smaller than in the liver of the control animals.

For the next assay, the system named is Lewis carcinoma (3LL). Briefly: Resistance of treated mice to Lewis carcinoma (3LL). The format is in vivo, C57B1/6 mice. As to conditions: product injected 24 hours after inoculation; for Development of the tumor (difference in thickness between tumor paw and contralateral paw): 10^5 3LL cells into plantar pad, measured 9 days later, NaCl control 326 ± 34; for Number of pulmonary metastases: tumor paw amputated, autopsy 20 days after inoculation, NaCl control 5.3 ± 2.7. On the procedure: This tumor is maintained in the laboratory as has been described (Fauve, R. M. and Hevin, B., Ann. Immunol. (Inst. Pasteur), 1977, 128C, 923-928). 3LL cells were cultured in Eagle medium supplemented with 15% of foetal calf serum and, after washing and resuspending in Eagle medium without serum, injected in the proportion of 10^5 cells in a volume of […] into the plantar pad of C57B1/6 mice. The difference between the thickness of the paw where the tumor is developed and the contralateral paw enables the development of the tumor to be evaluated.
In all cases, the products tested were injected 24 hours after inoculation of the malignant cells and, 9 days later, after having measured the thickness of the paws, the paw bearing the tumor was amputated and, 11 days later, namely 20 days after inoculation of the tumors, the animals were autopsied and the number of metastatic pumonary nodules counted. The following table summarizes the results obtained.

Another assay relates to Salmonella typhimurium. Briefly: Blood purging of Salmonella typhimurium in treated mice. The format is in vivo. The conditions noted are these: 0.5 ml of 10^-4 M i.v. 12 h before i.v. 2×10^7 Salmonella typhimurium; NaCl control 1.20 × 10^6 ± 0.28. On the procedure:
The increase in the bactericidal power of the macrophages always accompanying an increase in their ingestion capacities, it was sought to measure the latter with Salmonella typhimurium which necessitates for its phagocytosis, contrary to Listeria monocytogenes, opsonizing antibodies or a considerable stimulation of the hepatic macrophages. For this, the mice were treated under the same conditions as in the preceding experiment but were inoculated with 2×10^7 Salmonella typhimurium intravenously.

The next assay deals with guinea pig ileon. The conditions noted are these: cited from earlier work.

Ends that are not written are not given here.

Consider “HPPGF [H5, Histidyl→prolyl→prolyl→glycyl→phenylalanine]”, for which the “Number of Listeria monocytogenes in the spleen of mice 48 h after infection” value (shortened to “Number of Listeria monocytogenes”) in the assay with Listeria monocytogenes is listed as 2.4 × 10^7 ± 1.3. Besides, in the assay on Lewis carcinoma (3LL), the “Development of the tumor (difference in thickness between tumor paw and contralateral paw)” value is 272 ± 41; the “Number of pulmonary metastases” value was determined as 0.5 ± 0.10. Moreover, the “Number of Salmonella typhimurium per ml of blood 2 h after infection” value (“Number … per ml of blood 2 h after infection” below) in the assay on Salmonella typhimurium is 7.15 × 10^4 ± 0.78 per ml of blood.

Take “KPPGF [L5, Lysyl→prolyl→prolyl→glycyl→phenylalanine]”: in the assay on Listeria monocytogenes, the “Number of Listeria monocytogenes” value is recorded as 1.8 × 10^7 ± 0.28. In the assay on Lewis carcinoma (3LL), the “Development of the tumor (difference in thickness between tumor paw and contralateral paw)” value came out at 295 ± 25; the “Number of pulmonary metastases” value came to 3.7 ± 2. Also, in the assay on Salmonella typhimurium, the “Number … per ml of blood 2 h after infection” value is given as 9.35 × 10^4 ± 7.9 per ml of blood.

Take “RPPGF [1-5, Arginyl→prolyl→prolyl→glycyl→phenylalanine]”: in the assay on Listeria monocytogenes, the “Number of Listeria monocytogenes” value is reported as 3.1 × 10^7 ± 1. In the assay with Lewis carcinoma (3LL), the “Development of the tumor (difference in thickness between tumor paw and contralateral paw)” value is recorded as 284 ± 33; the “Number of pulmonary metastases” value stood at 0.7 ± 0.11. For the same substance, in the assay with Salmonella typhimurium, the “Number … per ml of blood 2 h after infection” value is recorded as 3.05 × 10^5 ± 1.6 per ml of blood. The “Activity with respect to the guinea pig ileon” value in the assay on guinea pig ileon is “totally inactive”.
